Test results reported in PubChem BioAssay AID330 (DTP/NCI, 2004).
“And” between values parts separate entries of the source, which are not always exact repeats. Equal entries are not always repeated. Inconclusive results and toxic doses are left out. The calls were made as follows: active = survival T/C of 150% or more; inactive = T/C below 125% in these data.

Test system: P388 leukemia ip, CD2F1 mice, survival T/C
Assay: NCI In Vivo Anticancer Drug Screen. Data for tumor model P388 Leukemia (intraperitoneal) in CD2F1 (CDF1) mice
Conditions: endpoint: median survival time, higher = longer survival
Summary of the method: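 Mice carrying the transplanted tumor received test compound or vehicle. Survival was recorded in each group, and the value is the treated-group measurement divided by that of the vehicle-treated control group.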

[1] = dose: 60.0 mg/kg/injection, schedule: Q01DX005 (ip), vehicle: saline with Tween-80
[2] = dose: 120.0 mg/kg/injection, schedule: Q01DX005 (ip), vehicle: saline with Tween-80
[3] = dose: 50.0 mg/kg/injection, schedule: Q01DX005 (ip), vehicle: Klucel (hydroxypropylcellulose) (HPC)
[4] = dose: 100.0 mg/kg/injection, schedule: Q01DX005 (ip), vehicle: Klucel (hydroxypropylcellulose) (HPC)
[5] = dose: 200.0 mg/kg/injection, schedule: Q01DX005 (ip), vehicle: Klucel (hydroxypropylcellulose) (HPC)
[6] = dose: 50.0 mg/kg/injection, schedule: Q01DX009 (ip), vehicle: Klucel (hydroxypropylcellulose) (HPC)
[7] = dose: 100.0 mg/kg/injection, schedule: Q04DX003 (ip), vehicle: saline
[8] = dose: 200.0 mg/kg/injection, schedule: Q04DX003 (ip), vehicle: saline
[9] = dose: 50.0 mg/kg/injection, schedule: Q01DX009 (ip), vehicle: saline
[10] = dose: 100.0 mg/kg/injection, schedule: Q01DX009 (ip), vehicle: saline

Measured: T/C

C(=C\c1cc(-c2cc(/C=C/c3ccccc3)[nH]n2)n[nH]1)/c1ccccc1
inactive: [1] 100 % of control | [2] 99 % of control

CCOC(=O)OCC1=Nc2cccc3cccc(c23)N1
inactive: [3] 100 % of control | [4] 110 % of control | [5] 108 % of control

O=C1CSC(=S)N1c1ccc(Cl)cc1
inactive: dose: 25.0 mg/kg/injection, schedule: Q01DX009 (ip), vehicle: Klucel (hydroxypropylcellulose) (HPC) 96 % of control | [6] 96 % of control | dose: 100.0 mg/kg/injection, schedule: Q01DX009 (ip), vehicle: Klucel (hydroxypropylcellulose) (HPC) 113 % of control

O=S1(=O)CC(N2CCCCC2)C2=C(O1)c1ccccc1SC2 (stereo not drawn)
inactive: dose: 50.0 mg/kg/injection, schedule: Q01DX009 (ip), vehicle: saline with Tween-80 88 % of control | dose: 100.0 mg/kg/injection, schedule: Q01DX009 (ip), vehicle: saline with Tween-80 92 % of control

C=C(Cl)C(=NC1CCCCC1)NC(C)(C)C
inactive: dose: 0.79 mg/kg/injection, schedule: Q01DX005 (ip), vehicle: Klucel (hydroxypropylcellulose) (HPC) 97 % of control | dose: 1.56 mg/kg/injection, schedule: Q01DX005 (ip), vehicle: Klucel (hydroxypropylcellulose) (HPC) 101 % of control and 107 % of control | dose: 3.12 mg/kg/injection, schedule: Q01DX005 (ip), vehicle: Klucel (hydroxypropylcellulose) (HPC) 104 % of control and 107 % of control and 109 % of control | dose: 6.25 mg/kg/injection, schedule: Q01DX005 (ip), vehicle: Klucel (hydroxypropylcellulose) (HPC) 116 % of control | dose: 12.5 mg/kg/injection, schedule: Q01DX005 (ip), vehicle: Klucel (hydroxypropylcellulose) (HPC) 110 % of control

c1ccc(-c2nn(-c3ccccc3)[n+](-c3ccccc3)n2)cc1
inactive: dose: 1.25 mg/kg/injection, schedule: Q01DX009 (ip), vehicle: saline with Tween-80 100 % of control | dose: 2.5 mg/kg/injection, schedule: Q01DX009 (ip), vehicle: saline with Tween-80 90 % of control

OCCN1CCC2(CC1)SSC1(CCN(CCO)CC1)S2
inactive: dose: 50.0 mg/kg/injection, schedule: Q04DX003 (ip), vehicle: saline 100 % of control | [7] 100 % of control | [8] 100 % of control

O=c1[nH]c(=O)n(C(c2ccccc2)c2ccccc2)cc1F
inactive: dose: 12.5 mg/kg/injection, schedule: Q01DX009 (ip), vehicle: suspension in saline 100 % of control | dose: 25.0 mg/kg/injection, schedule: Q01DX009 (ip), vehicle: suspension in saline 89 % of control | dose: 50.0 mg/kg/injection, schedule: Q01DX009 (ip), vehicle: suspension in saline 99 % of control | dose: 75.0 mg/kg/injection, schedule: Q01DX009 (ip), vehicle: suspension in saline 101 % of control | dose: 100.0 mg/kg/injection, schedule: Q01DX009 (ip), vehicle: suspension in saline 94 % of control | dose: 150.0 mg/kg/injection, schedule: Q01DX009 (ip), vehicle: suspension in saline 90 % of control

C[N+](C)(C)CCC(=O)c1ccc([N+](=O)[O-])cc1
inactive: [9] 109 % of control | [10] 118 % of control

CC(C)(C)C(=O)Nc1ccccc1-c1ccccc1
inactive: [7] 93 % of control | [8] 92 % of control | dose: 400.0 mg/kg/injection, schedule: Q04DX003 (ip), vehicle: saline 94 % of control

CCCCCCCCOS(=O)(=O)c1ccc([N+](C)(C)C)cc1
inactive: dose: 12.5 mg/kg/injection, schedule: Q01DX009 (ip), vehicle: saline 103 % of control | dose: 25.0 mg/kg/injection, schedule: Q01DX009 (ip), vehicle: saline 105 % of control | [9] 110 % of control

CC(C)SC(=O)C[Si](C)(C)C
inactive: dose: 50.0 mg/kg/injection, schedule: Q04DX003 (ip), vehicle: saline with Tween-80 98 % of control and 101 % of control | dose: 100.0 mg/kg/injection, schedule: Q04DX003 (ip), vehicle: saline with Tween-80 101 % of control and 104 % of control | dose: 200.0 mg/kg/injection, schedule: Q04DX003 (ip), vehicle: saline with Tween-80 103 % of control and 105 % of control | dose: 400.0 mg/kg/injection, schedule: Q04DX003 (ip), vehicle: saline with Tween-80 98 % of control

COc1ccc(C(O)c2cc(C(F)(F)F)cc(C(F)(F)F)c2)cc1OC (stereo not drawn)
inactive: [3] 100 % of control | [4] 92 % of control | [5] 91 % of control

Nc1ncnc2c1c(-c1ccccc1)cn2-c1ccccc1
inactive: [1] 103 % of control | [2] 104 % of control | dose: 240.0 mg/kg/injection, schedule: Q01DX005 (ip), vehicle: saline with Tween-80 98 % of control

C=C(COC(=O)Nc1cc(Cl)ccc1C)C(=O)O
inactive: [6] 105 % of control

C#CCOCC1CO1 (stereo not drawn)
inactive: [9] 110 % of control | [10] 110 % of control | dose: 200.0 mg/kg/injection, schedule: Q01DX009 (ip), vehicle: saline 115 % of control
